The values below are quoted from earlier work in publication PMC11212004 (Pharmacology Research & Perspectives, 2024).

The conditions of data set [1]: collagen‐induced arthritis (CIA) model.

Structures are written as SMILES.

`CCC(=O)Nc1ccc(Cl)c(Cl)c1` [DCPA, 3,4‐dichloropropionanilide]: the “mineral resorption by osteoclasts in vitro” value with osteoclasts is recorded as “inhibits mineral resorption”. For the same compound, the “IL‐2 secretion” value with Jurkat cells is given as “decreased NFAT‐dependent IL‐2 secretion”. Moreover, the “Orai calcium channel antagonism” value in the data set with Orai calcium channel is “functions as an Orai calcium channel antagonist”. In addition, the “bone erosion and cartilage damage” value in data set [1] is “reduces bone erosion and cartilage damage”.
